Measured values: US12017974B2, “Adamantanecarboxylic acid benzyl amide derivative compound and skin whitening composition comprising same” (AMOREPACIFIC CORPORATION, priority 2019, dated 2024)

Test system: B16F10 (malignant melanoma cells)
Assay: Effect of inhibiting melanin formation in melanocytes (Dooley method)
Type: cell-based
Conditions: Mus musculus, B16-F10, 72 h; mice-derived B16F10 cells; treated continuously for 3 days; melanin dissolved in 1 N NaOH, absorbance at 405 nm; read-out: Inhibition of melanin formation IC50
Protocol: Each of the amide derivative compounds according to Examples was determined in terms of the effect of inhibiting melanin formation in melanocytes by using the Dooley method. As a cell line, a mice-derived B16F10 (malignant melanoma cells) available from Korean Cell Line Bank was used. In addition, DMEM (Cat No. 11195), FBS (Cat No. 16000-044) and antibiotic-antifungal agent (Cat No. 15240-062) required for culturing cells were purchased from Invitrogen (GIBCO). The cell line was cultured at 37° C. under 5% CO2. The cultured B16F10 cells were stripped off with 0.05% trypsin-EDTA, the same number of cells (1×10^4 cells/well) was inoculated into a 48-well plate, and then the medium was exchanged with a medium containing 10 ppm of each Example continuously for 3 days from the next day. As a positive control, kojic acid and 5-adamantan-1-yl-N-(2,4-dihydroxybenzyl)-2,4-dimethoxybenzamide were used. After the fifth day, the cells were treated with 1 N NaOH to carry out reaction at 60° C. for 2 hours so that melanin contained in the cells might be dissolved, and then the amount of melanin was measured by determining the absorbance at 405 nm. Then, the concentration (IC50) of each Example required for reducing melanin formation by half in melanocytes was calculated.

IC50 | SMILES
1100 nM | COc1cc(OC)c(C23CC4CC(CC(C4)C2)C3)cc1C(=O)NCc1ccc(O)cc1O [5-adamantan-1-yl-N-(2,4-dihydroxybenzyl)-2,4-dimethoxybenzamide, reference compound]
15000 nM | O=C(NCc1ccc(O)cc1O)C12CC3CC(CC(C3)C1)C2 [Example 1, Adamantane-1-Carboxylic Acid 2,4-Dihydroxybenzylamide]
20 nM | O=C(NCc1ccc(O)c(O)c1)C12CC3CC(CC(C3)C1)C2 [Example 2, Adamantane-1-Carboxylic Acid 3,4-Dihydroxybenzylamide]
20600 nM | O=C(NCc1cc(O)cc(O)c1)C12CC3CC(CC(C3)C1)C2 [Example 3, Adamantane-1-Carboxylic Acid 3,5-Dihydroxybenzylamide]
1430 nM | O=C(NCc1cc(O)ccc1O)C12CC3CC(CC(C3)C1)C2 [Example 4, Adamantane-1-Carboxylic Acid 2,5-Dihydroxybenzylamide]
11100 nM | O=C(NCc1ccc(O)cc1)C12CC3CC(CC(C3)C1)C2 [Example 5, Adamantane-1-Carboxylic Acid 4-Hydroxybenzylamide]
480 nM | O=C(NCc1cccc(O)c1)C12CC3CC(CC(C3)C1)C2 [Example 6, Adamantane-1-Carboxylic Acid 3-Hydroxybenzylamide]
2360 nM | O=C(NCc1ccccc1O)C12CC3CC(CC(C3)C1)C2 [Example 7, Adamantane-1-Carboxylic Acid 2-Hydroxybenzylamide]
500000 nM | O=c1cc(CO)occ1O [Kojic acid, reference compound]
